Test results: article PMC10283047, “Targeting β-catenin and PD-L1 simultaneously by a racemic supramolecular peptide for the potent immunotherapy of hepatocellular carcinoma” (Theranostics, 2023)

Tested on: RAW264.7 macrophagocytes
Method: Besides, we contrastively explored cellular uptakes of BBI, PDP, sBBI and sBBI&PDP into a macrophage cell line RAW264.7 and HCC cell line Hepa1-6. The fluorescence was derived from fluorescein isothiocyanate (FITC), FITC was linked to the amino-terminal of sBBI, and the sBBI with FITC was then combined with PDP to form FITC-sBBI&PDP.
Hepa1-6 cells are seeded in 6-well plates at an appropriate density, approximately 200,000 cells per
well. After cell attachment, 1 mL of drug was labeled with 10 µL of FITC (100:1). Keep away from
light, and co-incubate the drug with the cells for 10 minutes. Digest cells according to normal
procedures. After centrifugation, wash 2-3 times with PBS and resuspend in 150-200 µL PBS for
FACS detection. FITC was incubated with drugs for 30 minutes. Plate with 6 cm confocal laser
dishes, 100,000 cells per well. After cell attachment, FITC-labeled drug was added. Drugs were co-
cultured with cells for 6 h. Cells were washed twice with PBS and cellular uptake observed under a
confocal laser fluorescence microscope.

Substance | Cellular uptake
KFERQKILDSQEQLEHRERSLQT -(Hle)-RDIQRML-(2-Nal)-PC [BBI] | neither BBI nor PDP peptide showed cellular uptakes
CHEHEKFEQR-(PEG3)-nyskptdrqyhfrr [PDP] | neither BBI nor PDP peptide showed cellular uptakes
